One test has as its system MMA in RKO cells. The test can be described thus: RKO In Cell Western assay (MMA primary antibody). The class given is cell-based. To be noted: Homo sapiens, 72 hours, read-out: RKO ICW_EC30. On the procedure:
RKO was seeded at a concentration of 20,000 cells/ml into a polylysine-coated 96-well plate (Corning #3599), with 2,000 cells per well and 100 μL of culture mediumper well. 500 nL of compound was added to the 96-well plate. 3) The 96-well plate was incubated in a 37° C., 5% CO2 incubator for 72 hours. After three days, the 96-well plate was taken from the incubator, 100 μL of 8% paraformaldehyde solution was added to each well, and the plate was placed at room temperature for 15 min. After 15 min, the liquid in the plate was shaken out and the plate was washed three times with phosphate buffer (1*PBS). The liquid in the plate was shaken out and 200 μL of membrane-breaking buffer (0.1% (v/v) Tween-20 in PBS) was added and the plate was incubated on a shaker for 30 min. After half an hour, the liquid in the plate was shaken out, and blocking buffer was added and the plate was incubated for two hours at room temperature with shaking. After that, the liquid in the plate was shaken off, and the blocking solution containing primary antibody (MMA primary antibody, CST #8711S, 1:1000 v/v) was added to the 96-well plate and the plate was incubated at 4° C. overnight with shaking. The next day, the plate was washed three times with washing solution (0.05% (v/v) Tween-20 in PBS), and a blocking solution containing secondary antibody (goat anti-rabbit IgG (H+L) Invitrogen #31460, 1:10,000 v/v) was added and the plate was incubated for two hours at room temperature. Afterwards, the 96-well plate was washed four times with washing solution. The TMB mixture was added to the 96-well plate and then the plate was incubated for 15 minutes at room temperature with shaking. After that, the reaction terminating solution was added, and the value was read at OD450 nm using an microplate reader. The plate was washed three times with washing solution, and 50 μL of janusgreen staining solution was added, and the plate was incubated for 15 minutes at room temperature with shaking. The reaction was washed ten times with water until no color residue was left. 200 μL of 0.5 M hydrochloric acid solution was added to each well and the plate was incubated for 10 min at room temperature. The value was read at OD595 nm using Flexstation.
Firstly, the ratio OD450/OD595 was calculated for each well
Each plate had six DMSO negative control groups (ZPE) and six 10 μM positive control groups (HPE), and the average of the control group ratios was used to determine the percentage of activation for each test well. The compounds to be tested were triple diluted with DMSO for a total of 8 concentration points with a starting concentration of 5 μM. The equation for calculating the activation percentage of each test well was: […]

For another test, the system named is Toledo cells. The test can be described thus: Toledo cell proliferation inhibition assay. The class given is cell-based. To be noted: Homo sapiens, Toledo, 144 h; six-day assay, CellTiter-Glo. The procedure, abridged:
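Toledo cells seeded at 2000 cells/well in RPMI 1640 + 10% FBS and incubated with compound for six days at 37° C, 5% CO2. Viability was then read by CellTiter-Glo luminescence after 30 min orbital mixing.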
A general note: Cellular ATP, detected with luciferase, serves as a proxy for viable cell number.

A further test deals with PRMT1 (Homo sapiens, UniProt Q99873). The test can be described thus: PRMT1 enzyme activity test. To be noted: 0.5 nM PRMT1, 3H-SAM, peptide. It counts as biochemical. In outline:
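Radiometric methylation assay: 0.5 nM PRMT1 preincubated 15 min at room temperature with compound (10-point 3-fold series, 1% DMSO) in pH 8.0 Tris buffer with Tween-20 and DTT. 0.25 uM ³H-SAM and 0.1 uM biotinylated peptide then reacted 120 min. Product captured on streptavidin FlashPlate and counted; IC50 from four-parameter fit of % inhibition.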

Chain of PRMT1 (Q99873 whole entry): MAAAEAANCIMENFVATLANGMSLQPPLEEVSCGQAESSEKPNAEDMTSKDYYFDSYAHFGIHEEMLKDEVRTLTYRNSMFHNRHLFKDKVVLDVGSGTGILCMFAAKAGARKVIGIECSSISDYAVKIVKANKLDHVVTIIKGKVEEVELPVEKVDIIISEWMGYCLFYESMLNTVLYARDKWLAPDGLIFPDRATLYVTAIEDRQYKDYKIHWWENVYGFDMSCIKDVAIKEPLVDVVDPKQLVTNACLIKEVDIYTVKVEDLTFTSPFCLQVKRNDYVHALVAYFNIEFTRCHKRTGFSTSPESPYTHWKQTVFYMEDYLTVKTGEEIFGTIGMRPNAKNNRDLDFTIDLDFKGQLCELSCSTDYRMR

In the case of `CNCCN(C)Cc1cc(F)ccc1C1CCc2ccc(C(F)(F)F)cc2CC1` (stereo not drawn) [P001], in the test on MMA in RKO cells, the EC30 was 250 to 2500 nM. Further, the IC50 (usually the midpoint of a concentration-inhibition curve) is under 1000 nM with Toledo cells and under 50 nM at PRMT1.
Take `CNCCN(C)Cc1ccc(F)cc1[C@H]1CC[C@H](c2cccc(C)c2)CC1` [P003]: in the test on MMA in RKO cells, the EC30 is under 250 nM. The results for the concentration for half-maximal inhibition (IC50) in the test on Toledo cells and on PRMT1 were under 1000 nM and under 50 nM, respectively.
The like results for `CNCCN(C)Cc1cc(F)ccc1[C@H]1CC[C@H](c2cccc(C)c2)CC1` [P005] were, in that order, 250 to 2500 nM, under 1000 nM and under 50 nM.
For `CNCCN(C)Cc1ccc(F)cc1C1CCc2cc(F)c(F)cc2CC1` [P007] the same measures were under 250 nM, under 1000 nM and under 50 nM.
For `CNCCN(C)Cc1ccc(F)cc1C1CCc2cc(F)cc(F)c2CC1` (stereo not drawn) [P008] the same measures were 250 to 2500 nM, under 1000 nM and under 50 nM.
For `CNCCN(C)Cc1cc(F)ccc1C1CCc2cc(F)c(F)cc2CC1` [P009], in the test on MMA in RKO cells, the EC30 fell in the range of 250 to 2500 nM. Moreover, the IC50 is under 1000 nM in the test on Toledo cells and under 50 nM against PRMT1.
For `CC[C@H]1CC[C@@H](c2ccccc2CN(C)CCNC)CC1` [P014] the same measures were 250 to 2500 nM, under 1000 nM and under 50 nM.
For `CCC1CCC(c2ccccc2CN(C)CCNC)CC1` (stereo not drawn) [P015] the same measures were 250 to 2500 nM, under 1000 nM and under 50 nM.
For `CNCCN(C)Cc1ccc(F)cc1C1CCN(c2cccc(C)c2)CC1` [P021] the same measures were under 250 nM, under 1000 nM and under 50 nM.
`CNCCN(C)Cc1ccccc1C1CCN(c2cccc(C)c2)CC1` [P022]: the EC30 in the test on MMA in RKO cells was under 250 nM. The IC50 was under 1000 nM in the test with Toledo cells and under 50 nM at PRMT1.
As to `CNCCN(C)Cc1ccccc1C1CCC2(CC1)CC(C)(C)CO2` (stereo not drawn) [P039], the EC30 in the test with MMA in RKO cells lay in the range of 250 to 2500 nM. Moreover, the IC50 with Toledo cells is under 1000 nM; against PRMT1 it was under 50 nM.
Take `CNCCN(C)Cc1ncccc1N1CCC(Oc2cccnc2)CC1` [P269]: the IC50 in the test on Toledo cells is 1000 to 5000 nM; against PRMT1, under 50 nM.
For `CNCCN(C)Cc1ncccc1N1CCc2ccc(NC(C)=O)cc2CC1` [P270], the IC50 in the test with Toledo cells is 1000 to 5000 nM; on PRMT1, under 50 nM.
For `CNCCN(C)Cc1ncccc1C1COc2ccccc2OC1` [P271] the same measures were 1000 to 5000 nM and under 50 nM.
On to `CNCCN(C)Cc1ncccc1N1CCc2nc(N(C)C)nc(C)c2CC1` [P272], for which the IC50 in the test with Toledo cells was in the range of 1000 to 5000 nM; at PRMT1, 50 to 500 nM.
The like results for `CCOC(=O)C1(CC)CCN(c2cccnc2CN(C)CCNC)CC1` [P273] were, in that order, 1000 to 5000 nM and under 50 nM.
For `CNCCN(C)Cc1ncccc1N1CCC(N2CCC(C(=O)NC)CC2)CC1` [P275] the same measures were at least 5000 nM and at least 500 nM.
For `CNCCN(C)Cc1ncccc1N1CCC(N2CCCC(C(=O)NC)C2)CC1` (stereo not drawn) [P276] the same measures were at least 5000 nM and at least 500 nM.
Take `CNCCN(C)Cc1ncccc1C1CCN(c2ccnc(C)n2)CC1` [P277]: the IC50 in the test with Toledo cells was under 1000 nM; at PRMT1, under 50 nM.
Take `CNCCN(C)Cc1ncccc1C1CCN(c2nccc(C)n2)CC1` [P278]: the IC50 with Toledo cells was 1000 to 5000 nM; against PRMT1, under 50 nM.
For `CNCCN(C)Cc1ncccc1C1CCN(c2cc(C)ncn2)CC1` [P279] the same measures were 1000 to 5000 nM and under 50 nM.
The like results for `CNCCN(C)Cc1ncccc1N1CCc2nc(C)nc(C)c2CC1` [P280] were, in that order, at least 5000 nM and under 50 nM.
For `CNCCN(C)Cc1ncccc1N1CC[C@H](OC)[C@H](OC)CC1` [P281] the same measures were at least 5000 nM and 50 to 500 nM.
On to `CNCCN(C)Cc1ncccc1C1CCN(c2ccc(S(C)(=O)=O)cc2)CC1` [P284], for which the IC50 with Toledo cells is 1000 to 5000 nM; against PRMT1, under 50 nM.
For `CNCCN(C)Cc1ncccc1C1CCN(c2cccc(C(=O)O)c2)CC1` [P285] the same measures were at least 5000 nM and at least 500 nM.
Regarding `CNCCN(C)Cc1ncccc1N1CCc2cnc(N(C)C)nc2CC1` [P286], the IC50 was 1000 to 5000 nM in the test on Toledo cells and under 50 nM against PRMT1.
The like results for `CNCCN(C)Cc1ncccc1C1CCN(c2ccncn2)CC1` [P287] were, in that order, under 1000 nM and under 50 nM.
For `CNCCN(C)Cc1ncccc1C1CCN(c2cnccn2)CC1` [P288] the same measures were 1000 to 5000 nM and under 50 nM.
For `CNCCN(C)Cc1ncccc1C1CCN(c2ncccn2)CC1` [P290] the same measures were 1000 to 5000 nM and under 50 nM.
For `CNCCN(C)Cc1ncccc1N1CCc2cnc(C)nc2CC1` [P291], the IC50 with Toledo cells is at least 5000 nM; against PRMT1, under 50 nM.
Take `CNCCN(C)Cc1ncc(N)nc1C1CCN(c2cccc(C)c2)CC1` [P292, N-((5-amino-3-(1-(m-tolyl)piperidin-4-yl)pyrazin-2-yl)methyl)-N,N′-dimethyl-1,2-ethyle nediamine]: the IC50 in the test on Toledo cells is under 1000 nM; against PRMT1, under 50 nM.
Take `CCOCC1(COCC)CCC(c2nc(N)ccc2CN(C)CCNC)CC1` [P293, N1-((6-amino-2-(4,4-bis(ethoxymethyl)cyclohexyl)pyridin-3-yl)methyl)-N1,N2-dimethyle thane-1,2-diamine]: the IC50 with Toledo cells is under 1000 nM; against PRMT1 it was 50 to 500 nM.
For `CNCCN(C)Cc1ncccc1C1CCN(c2cccc(C(N)=O)c2)CC1` [P297] the same measures were at least 5000 nM and under 50 nM.
The like results for `CNCCN(C)Cc1ncccc1C1CCN(c2ccccc2C(N)=O)CC1` [P298] were, in that order, 1000 to 5000 nM and under 50 nM.
For `CCC1(C(=O)NC)CCN(c2cccnc2CN(C)CCNC)CC1` [P300] the same measures were at least 5000 nM and 50 to 500 nM.
In the case of `CCOC(=O)C1CCN(c2cccnc2CN(C)CCNC)CC1` [P301], the IC50 in the test with Toledo cells was 1000 to 5000 nM; on PRMT1, under 50 nM.
For `CNCCN(C)Cc1ncccc1N1CCC(CC(=O)OC)CC1` [P302] the same measures were 1000 to 5000 nM and under 50 nM.
The like results for `CNCCN(C)Cc1ncccc1N1CCC(=CC(=O)OC)CC1` [P303] were, in that order, 1000 to 5000 nM and under 50 nM.
Consider `CNCCN(C)Cc1ncccc1N1CCc2nc(OC)cc(OC)c2CC1` [P304], for which the IC50 is 1000 to 5000 nM in the test with Toledo cells and under 50 nM on PRMT1.
Regarding `CNCCN(C)Cc1ncccc1N1CCC(COc2cnc(C)nc2)CC1` [P305], the IC50 in the test with Toledo cells is under 1000 nM; against PRMT1, under 50 nM.
Turning to `CNCCN(C)Cc1ncccc1N1CCC(COc2ccnc(C)n2)CC1` [P306], the IC50 with Toledo cells is 1000 to 5000 nM; against PRMT1 it was 50 to 500 nM.
For `CNCCN(C)Cc1ncccc1N1CCC(Oc2cnc(C)nc2)CC1` [P313] the same measures were 1000 to 5000 nM and under 50 nM.
The like results for `CNCCN(C)Cc1ncccc1N1CCC(Oc2ccnc(C)n2)CC1` [P314] were, in that order, at least 5000 nM and under 50 nM.
The like results for `CCC1(C(=O)O)CCN(c2cccnc2CN(C)CCNC)CC1` [P315] were, in that order, at least 5000 nM and at least 500 nM.
For `CNCCN(C)Cc1ncccc1C1CCN(c2cnc(C#N)nc2)CC1` [P318], the IC50 in the test with Toledo cells was at least 5000 nM; against PRMT1, under 50 nM.
For `CNCCN(C)Cc1ncccc1N1CCC(Nc2ccncn2)CC1` [P319] the same measures were at least 5000 nM and under 50 nM.
For `CNCCN(C)Cc1ncccc1N1CCc2cnc(NC)nc2CC1` [P320] the same measures were at least 5000 nM and under 50 nM.
As for `CNCCN(C)Cc1ncccc1C1CCN(c2cc(C)nc(N)n2)CC1` [P321], the IC50 is 1000 to 5000 nM in the test on Toledo cells and under 50 nM against PRMT1.
`CNCCN(C)Cc1ncccc1C1CCN(c2ccnc(N)n2)CC1` [P326]: the IC50 with Toledo cells was 1000 to 5000 nM; at PRMT1 it was under 50 nM.
For `CNCCN(C)Cc1ncccc1N1CCc2nc(SC)nc(O)c2CC1` [P329] the same measures were at least 5000 nM and 50 to 500 nM.

These data come from patent publication US20240307409A1, “ARGININE METHYLTRANSFERASE INHIBITOR AND USE THEREOF” (Cytosinlab Therapeutics Co., Ltd., priority 2021, published 2024).
